In patent US9963496B2, “Stable glucagon analogues and use for treatment of hypoglycaemia” (Novo Nordisk A/S, priority 2014, dated 2018):
*1 amine or outer side, *2 acyl side, *3 side chain or, on linkers, in order; H or OH if unused. Where a SMILES comes first, the peptide text is derived from it. Side-chain parts run from the residue outwards. [ ]: non-standard residue; d: D form. The star is where a group is joined. γGlu = O=C(O)[C@H](CCC(=O)[*:2])N[*:1]; Desaminohistidyl = O=C(CCc1c[nH]cn1)*; Aib = CC(C)(N)C(=O)O

Assay: physchem
Type: physicochemical
Conditions: pH 7.5
Excerpt: Assay (III): ThT Fibrillation Assay for the Assessment of Physical Stability of Peptide Compositions The purpose of this assay is to assess the physical stability of the glucagon derivatives of the invention in aqueous solutions. Low physical stability of a peptide may lead to amyloid fibril formation, which is observed as well-ordered, thread-like macromolecular structures in the sample, which eventually may lead to gel formation. This has traditionally been measured by visual inspection of the sample. However, that kind of measurement is very cumbersome and depending on the observer. Therefore, the application of a small molecule indicator probe is much more advantageous. Thioflavin T (ThT) is such a probe and has a distinct fluorescence signature when binding to fibrils [Naiki et al. (1989) Anal. Biochem. 177, 244-249; LeVine (1999) Methods. Enzymol. 309, 274-284]. Here, as depicted in FIG. 1, F is the ThT fluorescence at the time t. The constant t0 is the time needed to reach 50% of maximum fluorescence. The two important parameters describing fibril formation are the lag-time calculated by t0−2τ and the apparent rate constant kapp 1/τ. Samples were prepared freshly before each assay. Each sample composition is described in the legends. The pH of the sample was adjusted to the desired value using appropriate amounts of concentrated NaOH and HCl. Thioflavin T was added to the samples from a stock solution in H2O to a final concentration of 1 μM. Sample aliquots of 200 μl (250 μM of the glucagon derivative/analogue in 10 mM HEPES buffer, pH 7.5) were placed in a 96 well microtiter plate (Packard OptiPlate™-96, white polystyrene). Usually, four or eight replica of each sample (corresponding to one test condition) was placed in one column of wells. The plate was sealed with Scotch Pad (Qiagen). Incubation at given temperature, shaking and measurement of the ThT fluorescence emission were done in a Fluoroskan Ascent FL fluorescence platereader (Thermo Labsystems). The plate was incubated 37° C. with orbital shaking adjusted to 960 rpm with an amplitude of 1 mm. Fluorescence measurement was done using excitation through a 444 nm filter and measurement of emission through a 485 nm filter. Each run was initiated by incubating the plate at the assay temperature for 10 min. The plate was measured every 20 minutes for a desired period of time. Between each measurement, the plate was shaken and heated as described. After completion of the ThT assay the four or eight replica of each sample was pooled and centrifuged at 20000 rpm for 30 minutes at 18° C. The supernatant was filtered through a 0.22 μm filter and an aliquot was transferred to a HPLC vial. The concentration of peptide in the initial sample and in the filtered supernatant was determined by reverse phase HPLC using an appropriate standard as reference. The percentage fraction the concentration of the filtered sample constituted of the initial sample concentration was reported as the recovery. The measurement points were saved in Microsoft Excel format for further processing and curve drawing and fitting was performed using GraphPad Prism. The background emission from ThT in the absence of fibrils was negligible. The data points were typically a mean of four or eight samples and shown with standard deviation error bars. Only data obtained in the same experiment (i.e. samples on the same plate) were presented in the same graph ensuring a relative measure of fibrillation between experiments. The data set may be fitted to Eq. (1).

recovery at 250 μM [%]	SMILES
100	CC(=O)N[C@@H](CCC(=O)N[C@@H](CCC(=O)N[C@@H](CCC(=O)N[C@@H](CCC(=O)NCCCC[C@H](NC(=O)[C@@H](NC(=O)[C@H](Cc1ccccc1)NC(=O)[C@H](CC(=O)O)NC(=O)[C@H](CCC(N)=O)NC(=O)[C@H](C)NC(=O)[C@H](CCCNC(=N)N)NC(=O)[C@H](CCCNC(=N)N)NC(=O)[C@H](CO)NC(=O)[C@H](CCC(=O)O)NC(=O)[C@H](CC(C)C)NC(=O)[C@H](Cc1ccc(O)cc1)NC(=O)[C@H](CCCCN)NC(=O)[C@H](CO)NC(=O)[C@H](CC(C)C)NC(=O)[C@H](CC(=O)O)NC(=O)[C@H](CO)NC(=O)[C@@H](NC(=O)[C@H](Cc1ccccc1)NC(=O)[C@@H](NC(=O)CNC(=O)[C@H](Cc1c[nH]cn1)NC(=O)C(C)(C)NC(=O)CCc1c[nH]cn1)[C@@H](C)O)[C@@H](C)O)C(C)C)C(=O)N[C@@H](Cc1c[nH]c2ccccc12)C(=O)N[C@@H](CC(C)C)C(=O)N[C@@H](CC(C)C)C(=O)N[C@@H](CO)C(=O)N[C@H](C(=O)O)[C@@H](C)O)C(=O)O)C(=O)O)C(=O)O)C(=O)O [Example 3, N^ϵ24-[(4S)-4-[[(4S)-4-[[(4S)-4-[[(4S)-4-acetamido-4-carboxybutanoyl]amino]-4-carboxybutanoyl]amino]-4-carboxybutanoyl]amino]-4-carboxybutanoyl]-[Imp1, Aib2, His3, Leu10, Glu15, Lys24, Leu27, Ser28]-Glucagon] (Desaminohistidyl-[Aib]HGTFTSDLSKYLESRRAQDFVK([γGlu-γGlu-γGlu-γGlu-Ac])WLLST-OH)
100	CC(=O)N[C@@H](CCC(=O)N[C@@H](CCC(=O)N[C@@H](CCC(=O)N[C@@H](CCC(=O)NCCCC[C@H](NC(=O)[C@@H](NC(=O)[C@H](Cc1ccccc1)NC(=O)[C@H](CC(=O)O)NC(=O)[C@H](CCC(N)=O)NC(=O)[C@H](C)NC(=O)[C@H](CCCNC(=N)N)NC(=O)[C@H](CCCNC(=N)N)NC(=O)[C@H](CO)NC(=O)[C@H](CCC(=O)O)NC(=O)[C@H](CC(C)C)NC(=O)[C@H](Cc1ccc(O)cc1)NC(=O)[C@H](CCCCN)NC(=O)[C@H](CO)NC(=O)[C@H](Cc1ccc(O)cc1)NC(=O)[C@H](CC(=O)O)NC(=O)[C@H](CO)NC(=O)[C@@H](NC(=O)[C@H](Cc1ccccc1)NC(=O)[C@@H](NC(=O)CNC(=O)[C@H](Cc1c[nH]cn1)NC(=O)[C@H](CO)NC(=O)CCc1c[nH]cn1)[C@@H](C)O)[C@@H](C)O)C(C)C)C(=O)N[C@@H](Cc1c[nH]c2ccccc12)C(=O)N[C@@H](CC(C)C)C(=O)N[C@@H](CC(C)C)C(=O)N[C@@H](CO)C(=O)N[C@H](C(=O)O)[C@@H](C)O)C(=O)O)C(=O)O)C(=O)O)C(=O)O [Example 5, N^ϵ24-[(4S)-4-[[(4S)-4-[[(4S)-4-[[(4S)-4-acetamido-4-carboxybutanoyl]amino]-4-carboxybutanoyl]amino]-4-carboxybutanoyl]amino]-4-carboxybutanoyl]-[Imp1, His3, Glu15, Lys24, Leu27, Ser28]-Glucagon] (Desaminohistidyl-SHGTFTSDYSKYLESRRAQDFVK([γGlu-γGlu-γGlu-γGlu-Ac])WLLST-OH)
98	CC(=O)N[C@@H](CCC(=O)N[C@@H](CCC(=O)N[C@@H](CCC(=O)N[C@@H](CCC(=O)NCCCC[C@H](NC(=O)[C@H](CCC(=O)O)NC(=O)[C@H](CC(C)C)NC(=O)[C@H](Cc1ccc(O)cc1)NC(=O)[C@H](CCCCN)NC(=O)[C@H](CO)NC(=O)[C@H](Cc1ccc(O)cc1)NC(=O)[C@H](CC(=O)O)NC(=O)[C@H](CO)NC(=O)[C@@H](NC(=O)[C@H](Cc1ccccc1)NC(=O)[C@@H](NC(=O)CNC(=O)[C@H](Cc1c[nH]cn1)NC(=O)[C@H](CO)NC(=O)CCc1c[nH]cn1)[C@@H](C)O)[C@@H](C)O)C(=O)N[C@@H](CCCNC(=N)N)C(=O)N[C@@H](CCCNC(=N)N)C(=O)N[C@@H](C)C(=O)N[C@@H](CCC(N)=O)C(=O)N[C@@H](CCC(=O)O)C(=O)N[C@@H](Cc1ccccc1)C(=O)N[C@H](C(=O)N[C@@H](CCC(N)=O)C(=O)N[C@@H](Cc1c[nH]c2ccccc12)C(=O)N[C@@H](CC(C)C)C(=O)N[C@@H](CC(C)C)C(=O)N[C@@H](CO)C(=O)N[C@H](C(=O)O)[C@@H](C)O)C(C)C)C(=O)O)C(=O)O)C(=O)O)C(=O)O [Example 11, N^ϵ16-[(4S)-4-[[(4S)-4-[[(4S)-4-[[(4S)-4-acetamido-4-carboxybutanoyl]amino]-4-carboxybutanoyl]amino]-4-carboxybutanoyl]amino]-4-carboxybutanoyl]-[Imp1, His3, Glu15, Lys16, Glu21, Leu27, Ser28]-Glucagon] (Desaminohistidyl-SHGTFTSDYSKYLEK([γGlu-γGlu-γGlu-γGlu-Ac])RRAQEFVQWLLST-OH)
88	CC(=O)N[C@@H](CCC(=O)N[C@@H](CCC(=O)N[C@@H](CCC(=O)N[C@@H](CCC(=O)NCCCC[C@H](NC(=O)[C@H](C)NC(=O)[C@H](CCCNC(=N)N)NC(=O)[C@H](CCCNC(=N)N)NC(=O)[C@H](CO)NC(=O)[C@H](CCC(=O)O)NC(=O)[C@H](CC(C)C)NC(=O)[C@H](Cc1ccc(O)cc1)NC(=O)[C@H](CCCCN)NC(=O)[C@H](CO)NC(=O)[C@H](Cc1ccc(O)cc1)NC(=O)[C@H](CC(=O)O)NC(=O)[C@H](CO)NC(=O)[C@@H](NC(=O)[C@H](Cc1ccccc1)NC(=O)[C@@H](NC(=O)CNC(=O)[C@H](Cc1c[nH]cn1)NC(=O)[C@H](CO)NC(=O)CCc1c[nH]cn1)[C@@H](C)O)[C@@H](C)O)C(=O)N[C@@H](CCC(=O)O)C(=O)N[C@@H](Cc1ccccc1)C(=O)N[C@H](C(=O)N[C@@H](CCC(N)=O)C(=O)N[C@@H](Cc1c[nH]c2ccccc12)C(=O)N[C@@H](CC(C)C)C(=O)N[C@@H](CC(C)C)C(=O)N[C@@H](CO)C(=O)N[C@H](C(=O)O)[C@@H](C)O)C(C)C)C(=O)O)C(=O)O)C(=O)O)C(=O)O [Example 12, N^ϵ20-[(4S)-4-[[(4S)-4-[[(4S)-4-[[(4S)-4-acetamido-4-carboxybutanoyl]amino]-4-carboxybutanoyl]amino]-4-carboxybutanoyl]amino]-4-carboxybutanoyl]-[Imp1, His3, Glu15, Lys20, Glu21, Leu27, Ser28]-Glucagon] (Desaminohistidyl-SHGTFTSDYSKYLESRRAK([γGlu-γGlu-γGlu-γGlu-Ac])EFVQWLLST-OH)
